Data taken from patent US20130109738A1, “Control of Cardiac Growth, Differentiation and Hypertrophy” (The Board of Trustees of the Leland Stanford Junior …, priority 2010, published 2013).
“Also recorded” adds a separate entry of the source.

How the values were obtained:
[1] = test system: α-MHC and β-MHC expression in cardiac ventricles; assay: Quantitative RT-PCR of ventricular α-MHC and β-MHC in cultured whole embryos; design: species or system mouse
Protocol: (§1) Whole embryo culture Embryos ([…]) with intact yolk sacs were isolated and incubated in 1 ml culture medium containing 97% rat serum (Harlan Biosciences, Cincinnati, Ohio), 2 mg glucose, 100 U penicillin G and 100 μg streptomycin that was rotated slowly at […] and gassed periodically (every 8 hours) with 20% oxygen, 5% carbon dioxide, 75% nitrogen from E8.75 to E9.5, and 70% oxygen, 5% carbon dioxide and 25% nitrogen from E9.5 to E10.5. BMP10 (10 nM, RD Systems, Minneapolis, Minn.), BSA (125 ng/ml), TSA (100-500 nM, Sigma-Aldrich, St. Louis, Mo.), PJ-34 (20 uM, Alexis Corporation, San Diego)), BrdU (30_g/mL, Simga-Aldrich) or DMSO was added directly to the culture medium or during the last six hours for BrdU. Embryos were harvested 36-48 hours later for analysis.
Quantitative RT-PCR analysis. Quantitative RT-PCR analyses were performed as described previously to examine gene expressions in the cardiac ventricles of E10.5/E11.5 embryonic hearts and adult hearts. The following primer sequences were used: Murine MHO, 5′ primer […], 3′ primer […]. Murine β-MHC, 5″ primer […], 3′ primer […]. Murine HPRT, 5′ primer GCTGGTGAAAAGGACCTCT, 3′ primer […]. Murine Brg1, 5″ primer […], 3′ primer […]. Human H3F3A, 5′ primer […], 3′ primer […]. Human Brg1, 5′ primer […], 3′ primer […]. Human α-MHC and β-MHC were by Taqman probes (Applied Biosciences, Foster City, Calif.. RT-PCR reactions were performed using SYBR green master mix (BioRad, Hercules, Calif.) or Taqman reagents (Applied Biosciences), and the primer sets were tested to be quantitative. Threshold cycles and melting curve measurements were performed with software.

α-MHC promoter = assay: Luciferase reporter assay of α-MHC promoter activity in SW13 cells; type: cell-based, human
Protocol: (§2) Cloning and Luciferase Reporter Assay Full length as well as serially truncated versions of intergenic α-MHC and β-MHC promoters were cloned into pREP4-Luc reporter plasmid, as detailed in the supplementary method. The constructs were transfected into SW13 cells with lipofectamine 2000 (Invitrogen, Calif.) along with pREP7-RL as a transfection efficiency control and Brg1 expression vector with the appropriate empty vector control. Luciferase activity was measured and normalized to that of Renilla luciferase construct using the Dual-Luciferase Reporter System (Promega, Wis.).
(§3) Cloning and Luciferase Reporter Assay Specific truncations for the reporter constructs are as follows: for α-MHC promoter, full length promoter spans from 4243 by upstream and 192 by downstream of the transcription start site (−4243, +192), serially truncated versions span (−2537, +192), (−1802, +192), and (−462, +192). Likewise, β-MHC promoters span (−3561, +222), (−1770, +222), and (−835, +222).

β-MHC promoter = assay: Luciferase reporter assay of β-MHC promoter activity in SW13 cells; type: cell-based, human
Protocol: as §2, §3

[2] = test system: myocardial proliferation in cultured embryos; assay: Myocardial BrdU incorporation in whole embryo culture; design: species or system mouse
Protocol: Quantitative analysis of myocardial development H&E-stained 7 μm paraffin sections were used for the morphometric analysis of the compact and trabecular myocardium. The following parameters were measured: thickness of compact 4 myocardium, number of trabeculi directly connected to compact myocardium, and trabecular area normalized to ventricular size. BrdU-stained sections were used to count the number of BrdU-positive cells per area of myocardium or per number of cells in the endocardium or endocardial cushions. All quantification and scale measurement were performed using NIS-Elements software (Nikon).
as §1
Proliferation and apoptosis analysis. Pregnant mice were injected with BrdU (Sigma, 100 μg/ml, intraperitoneal injection) for 6 hours prior to embryo isolation at E10.5 or E11.5. Incorporated BrdU was stained in the tissue-section of the heart according to manufacturer's protocol (Zymed Laboratories, South San Francisco, Calif.). Apoptosis of embryos were analyzed by TUNEL staining using a kit (Roche, Applied Science, Indianapolis, Ind.).

embryos = assay: Gross morphology of cultured whole embryos; design: species or system mouse; conditions: whole embryos cultured from E9 to E10, compared to littermates treated with DMSO
Protocol: as §1

[3] = whole embryos cultured from E9 to E10, vs DMSO

Molecule: CN(C)CC(=O)Nc1ccc2[nH]c(=O)c3ccccc3c2c1 [PJ-34]
- MHC switch in cultured embryos ([1]; embryos cultured from E9 to E10, PJ-34 20 uM): exhibited α- and β-MHC switches; also recorded: causes MHC switch from β-MHC to α-MHC
- effect on Brg1-mediated α-MHC repression (α-MHC promoter; SW13 cells, PARP1 inhibition): reduced
- effect on Brg1-mediated β-MHC activation (β-MHC promoter; SW13 cells, PARP1 inhibition): reduced

Molecule: CC(/C=C/C(=O)NO)=C\[C@@H](C)C(=O)c1ccc(N(C)C)cc1 [TSA, trichostatin A]
- myocardial proliferation (BrdU incorporation) ([2]; wildtype embryos cultured from E8.75 to E10.5, BrdU last six hours, vs DMSO): normal
- increase in α/β MHC ratio [1, 3]: 3.5 folds
- α-MHC expression [1, 3]: significantly up-regulated
- β-MHC expression [1, 3]: down-regulated
- effect on BAF-mediated repression of α-MHC reporter (α-MHC promoter; SW13 cells transfected with Brg1 expression vector): reversed the BAF-mediated repression of α-MHC
- effect on Brg1-induced β-MHC promoter activation (β-MHC promoter; SW13 cells transfected with Brg1-expressing plasmid): no significant impact
- reduction of β-MHC promoter activity (β-MHC promoter; SW13 cells, basal activity without Brg1): 55%
- gross morphology of treated embryos (embryos): grossly normal

B1: BMP10: BMP10 protein (10 nM, RD Systems) required for the proliferation of myocardial cells (protein, UniProt O95393 317-424, looked up)
Bone morphogenetic protein 10: NAKGNYCKRTPLYIDFKEIGWDSWIIAPPGYEAYECRGVCNYPLAEHLTPTKHAIIQALVHLKNSQKASKACCVPTKLEPISILYLDKGVVTYKFKYEGMAVSECGCR
- increase of BrdU incorporation ([2]; Sm22αCre;Brg1F/F embryos cultured from E8.75 for 42 to 48 hours, BMP10 10 nM): 2.6 folds
- BrdU incorporation restored to (relative to control embryos) ([2]; Sm22αCre;Brg1F/F embryos cultured from E8.75 for 42 to 48 hours, BMP10 10 nM, untreated mutant 33+/−12%): 85+/−10%
- effect on premature MHC differentiation (α-MHC over-, β-MHC under-expression) ([1]; cultured Sm22αCre;Brg1F/F embryos, BMP10 vs BSA): failed to reverse the premature MHC differentiation
